Reference: paper PMC1931592 (BMC Pharmacology, 2007)
Entries after “also recorded” stand apart in the source; their conditions may differ.

Tests used:
Assay type in all cases: biochemical
[1] = biological target: T1, recombinant human caspase-7 (Homo sapiens, UniProt P55210); test: Ac-DNLD-MCA and Ac-DEVD-MCA cleavage assay, caspase-7; conditions: 200 μM substrate, 37°C, MCA liberation
T1 construct: each active recombinant human caspase was incubated; purchased Calbiochem
T1 sequence (P55210 24-198 limits assumed): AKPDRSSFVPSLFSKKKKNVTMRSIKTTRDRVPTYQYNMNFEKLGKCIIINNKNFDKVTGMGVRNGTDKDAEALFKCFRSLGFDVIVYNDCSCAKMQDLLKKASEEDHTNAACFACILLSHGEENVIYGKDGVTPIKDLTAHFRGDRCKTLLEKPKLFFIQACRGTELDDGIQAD
T1 sequence (P55210 207-303 limits assumed): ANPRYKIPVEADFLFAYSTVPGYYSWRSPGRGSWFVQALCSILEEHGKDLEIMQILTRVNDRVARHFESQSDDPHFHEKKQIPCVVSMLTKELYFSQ
Protocol: (§1) To characterize the potency and selectivity of Ac-DNLD-MCA for caspases-3, -7, -8, and -9, in vitro caspase activity assays were performed. One unit (the amount of enzyme that cleaves 1 nmol of substrate per hr) of each active recombinant human caspase was added to a reaction mixture containing 200 μM Ac-DNLD-MCA or Ac-DEVD-MCA in assay buffer (100 mM NaCl, 50 mM HEPES, 10 mM DTT, 1 mM EDTA, 10% glycerol, and 0.1% CHAPS, pH 7.4). Then, the liberation of MCA was monitored continuously at 37°C using a 96-well plate reader Wallace 1420 ARVOsx (PerkinElmer) with an excitation wavelength of 390 nm and an emission wavelength of 460 nm.

[2] = biological target: T2, recombinant human caspase-8 (Homo sapiens, UniProt Q14790); test: Ac-DNLD-MCA and Ac-DEVD-MCA cleavage assay, caspase-8; conditions: 200 μM substrate, 37°C, MCA liberation
T2 construct: each active recombinant human caspase was incubated; purchased Calbiochem
T2 sequence (Q14790 217-374 limits assumed): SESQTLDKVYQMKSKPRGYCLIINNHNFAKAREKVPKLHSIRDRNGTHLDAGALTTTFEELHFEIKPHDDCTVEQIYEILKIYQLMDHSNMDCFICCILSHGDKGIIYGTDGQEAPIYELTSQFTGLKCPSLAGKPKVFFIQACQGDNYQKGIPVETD
T2 sequence (Q14790 385-479 limits assumed): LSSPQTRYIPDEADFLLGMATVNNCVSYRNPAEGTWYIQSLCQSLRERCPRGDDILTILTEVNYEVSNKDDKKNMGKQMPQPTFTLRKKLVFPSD
Protocol: as §1

[3] = biological target: T3, recombinant human caspase-9 (Homo sapiens, UniProt P55211); test: Ac-DNLD-MCA and Ac-DEVD-MCA cleavage assay, caspase-9; conditions: 200 μM substrate, 37°C, MCA liberation
T3 sequence (P55211 140-315 limits assumed): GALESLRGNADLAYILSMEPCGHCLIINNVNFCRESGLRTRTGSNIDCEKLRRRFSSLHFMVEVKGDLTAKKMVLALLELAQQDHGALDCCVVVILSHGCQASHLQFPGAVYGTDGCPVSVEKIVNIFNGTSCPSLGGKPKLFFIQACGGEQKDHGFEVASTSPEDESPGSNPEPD
T3 sequence (P55211 331-416 limits assumed): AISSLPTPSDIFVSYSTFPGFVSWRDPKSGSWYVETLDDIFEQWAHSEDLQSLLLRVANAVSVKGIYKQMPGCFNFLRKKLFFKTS
Protocol: as §1

[4] = biological target: T4, substituted (S209A) caspase-3 (Homo sapiens, UniProt P42574, S209A); test: Cleavage assay with substituted (S209A) caspase-3 versus wild-type; conditions: S209A versus wild-type caspase-3
T4 construct: Active caspase-3 was generated by coexpression of HA-p17 and HA-p12 (wild type or mutant) subunits in vitro; (position 176–208, antisense); made in house
T4 sequence (P42574 29-175 limits assumed): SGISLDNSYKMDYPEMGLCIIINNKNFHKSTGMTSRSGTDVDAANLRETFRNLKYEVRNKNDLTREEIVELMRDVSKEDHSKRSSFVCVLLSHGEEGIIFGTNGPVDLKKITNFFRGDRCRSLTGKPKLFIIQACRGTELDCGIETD
T4 sequence (P42574 176-277 S209A limits assumed): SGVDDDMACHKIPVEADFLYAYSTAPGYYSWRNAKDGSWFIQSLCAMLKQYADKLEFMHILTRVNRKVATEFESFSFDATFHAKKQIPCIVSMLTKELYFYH
Protocol: as §1
Site-directed mutagenesis of p12 subunit (S209A) was introduced using PCR. The following primers were used for the preparation of the mutant, 5'-[…] TGACATG-3' (position 176–208, sense) and 5'-[…]-3' (position 176–208, antisense); 5'-[…]-3' (position 209–277, sense) and 5'-[…]-3' (position 209–277, antisense). The mutated site (Ser209→Ala) was shown in bold letter. After each fragments were amplified and ligated, they were tagged with HA and subcloned into pcDNA3 B (Invitrogen) at the EcoRV site. After comfirming the sequences, the inserts were excited by XhoI digestion and recloned into the XhoI site of pURE4 (Post Genome Institute Co., Ltd.) […]

cleavage of fluorometric substrate by caspase-7 (in words) [1]: able to cleave
cleavage of fluorometric substrate by caspase-8 (in words) [2]: able to cleave
cleavage of fluorometric substrate by caspase-9 (in words) [3]: able to cleave
Substance: Ac-DEVD-MCA
cleavage of substrate by S209A caspase-3 compared with wild-type (in words) [4]: virtually no effect; also recorded: as efficient as the wild-type
